From paper PMC4972829, “Olfactory Receptors Modulate Physiological Processes in Human Airway Smooth Muscle Cells” (Frontiers in Physiology, 2016) come the findings set out here.

Test [1] deals with T1, OR2AG1 (Homo sapiens, UniProt Q9H205).
T1 sequence (Q9H205 1-316): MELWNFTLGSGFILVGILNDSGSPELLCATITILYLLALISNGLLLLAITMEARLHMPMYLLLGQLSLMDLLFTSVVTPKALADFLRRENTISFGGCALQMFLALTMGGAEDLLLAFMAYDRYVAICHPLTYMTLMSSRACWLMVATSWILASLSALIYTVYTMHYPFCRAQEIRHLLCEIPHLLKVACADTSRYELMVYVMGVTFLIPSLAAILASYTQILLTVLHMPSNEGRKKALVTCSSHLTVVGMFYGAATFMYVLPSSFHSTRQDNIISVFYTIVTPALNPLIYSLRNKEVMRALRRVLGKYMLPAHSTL
The test can be described thus: fura-2 calcium imaging in native human airway smooth muscle cells; cAMP assay (text prints EC50 […], figure legend […]). The test is classed as cell-based. On the technique in general: Changes in cAMP serve as a functional read-out for many G protein-coupled receptors.

Test [2] has as its target T2, OR1D2 (Homo sapiens, UniProt P34982).
T2 sequence (P34982 1-312): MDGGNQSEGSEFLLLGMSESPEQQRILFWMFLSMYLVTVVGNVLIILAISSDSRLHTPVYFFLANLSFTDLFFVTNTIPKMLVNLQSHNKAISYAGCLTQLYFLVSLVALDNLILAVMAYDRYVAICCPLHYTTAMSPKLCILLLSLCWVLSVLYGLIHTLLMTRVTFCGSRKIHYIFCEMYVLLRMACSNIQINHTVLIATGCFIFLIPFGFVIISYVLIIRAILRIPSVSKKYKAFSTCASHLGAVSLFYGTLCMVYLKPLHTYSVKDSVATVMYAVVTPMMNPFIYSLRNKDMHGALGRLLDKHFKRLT
The test can be described thus: fura-2 calcium imaging in native human airway smooth muscle cells; blocked by OR1D2 antagonist undecanal; cAMP assay. The test is classed as cell-based.

As a reminder, the EC50 is the concentration that produces a half-maximal response.

As for `CCCCCOC(=O)CCC` [amyl butyrate], the EC50 in test [1] was determined as 253 µM.
For the molecule `CC(C)(C)c1ccc(CCC=O)cc1` [bourgeonal], in test [2], the concentration for a half-maximal effect (EC50) was found to be 0.504 µM.
